# Experimental data taken from US8598339B2, “Withanolide isolated from Physalis longifolia and analogs and methods of use thereof” (University of Kansas, priority 2011, dated 2013).
# Assays:
# NCI-H727 cells = test: PARP cleavage and caspase 3 activation, NCI-H727; assay type: cell-based; settings: 1 μM
# Protocol: In similar analysis with X003, 50% of UMSCC-2 HNSCC cells underwent apoptosis (early and late) at 1 μM, while 90% of cells underwent apoptosis at 3 μM. Apoptosis with 1 μM X003 was confirmed with PARP cleavage and caspase 3 activation in NCI-H727 cells.
# [1] = test system: heat shock factor (HSF) / HSE-luciferase in Hs766T cells; test: HSE-luciferase reporter, Hs766T; assay type: cell-based; set-up: dose or concentration left out as unconfirmed; settings: heat shock 42° C. 30 minutes; recovery 8 hours
# Protocol: To monitor the activation of heat shock factor (HSF) and heat shock-mediated signal transduction pathways, Hs766T cells were transfected with a HSE-luciferase construct, then treated with 3 mM of the selected withanolides for 8 hours. The cells were heat shocked at 42° C. for 30 minutes and allowed to recover at 37° C. for 8 hours. Cells were lysed and luciferase activity was measured on a plate reader.
# [2] = test system: hsf1 and client proteins of Hsp90 in Hs766T cells; test: Western blot, Hs766T; assay type: cell-based
# [3] = test system: hsf1 and client proteins of Hsp90 in MIA PaCa-2 cells; test: Western blot, MIA PaCa-2; assay type: cell-based
# [4] = test system: Hs766T pancreatic cancer cells; test: Co-treatment with carfilzomib, apoptosis, Hs766T; assay type: cell-based; settings: 0.1, 0.2 or 0.3 μM X003 with carfilzomib (10 nM)
# Protocol: To determine whether the instant withanolides could be used in combination with other treatment regimes, Hs766T pancreatic cancer cells were either treated with 0.1, 0.2 or 0.3 μM X003; 10 or 20 nM carfilzomib; or co-treated with carfilzomib (10 nM) and either 0.1, 0.2 or 0.3 μM X003.
# [5] = test system: TT medullary thyroid cancer cells; test: MTS cell viability assay, TT; assay type: cell-based; settings: Table 1, 72-hour treatment
# Protocol: Human carcinoid cells, NCI-H727 (ATCC, Manassas, Va.), were cultured under standard conditions. Squamous cell carcinoma of head and neck cells, MDA1986 (Myers, et al. (2002) Clin. Cancer Res. 8:293) and JMAR (Swan, et al. (2003) Oral Oncol. 39:648-55); and melanoma cells lines B16F10 (ATCC, Manassas, Va.) and SKMEL28 (CLS, Eppelheim, Germany) were cultured in DMEM medium supplemented with 10% heat-inactivated fetal bovine serum (Sigma-Aldrich, St. Louis, Mo.), 1×MEM-essential amino acid, 1×MEM vitamin, and penicillin/streptomycin (Sigma-Aldrich, St. Louis, Mo.) in a humid environment of 5% CO2 at 37° C. Activity of withanolides against DRO81-1 and TT medullary thyroid cancer cells was also determined.
# Cells were cultured in 96 well plates at a concentration of 1-2×10^4 cells/mL. Cell viability was assessed with the nonradioactive cell proliferation MTS assay using Cell Titer 96AQUEOUS One Solution Reagent (PROMEGA, Madison, Wis.), according to the manufacturer's instruction. After a 72-hour treatment, 20 μL of Cell Titer 96AQUEOUS One Solution Reagent were added to each well and incubated for 3 hours at 37° C. 5% CO2, and formazan absorbance was measured at 490 nm.
# DRO81-1 cells = test: Annexin V/PI staining and flow cytometry, DRO81-1; assay type: cell-based; settings: 24-hour exposure
# [6] = test system: DRO81-1 medullary thyroid cancer cells; test: PARP cleavage, DRO81-1; assay type: cell-based
# [7] = In vitro metabolism, human liver microsomes; assay type: in vitro ADME; settings: 1.0E-06 M
# Protocol: (§1) The in vitro metabolism of […], as compared to known reference compounds, was analyzed using liver microsomes from human, dog (Beagle), rat (Sprague-Dawley) and mouse (CD-1). […] Results are from two independent tests.
# [8] = In vitro metabolism, rat liver microsomes; assay type: in vitro ADME, rat (Sprague-Dawley); settings: 1.0E-06 M
# Protocol: as §1
# [9] = In vitro metabolism, mouse liver microsomes; assay type: in vitro ADME, mouse (CD-1); settings: 1.0E-06 M
# Protocol: as §1
# MDA-MB-468 = test: MTS assay, MDA-MB-468; assay type: cell-based
# Protocol: (§2) Cell proliferation was analyzed using MTS assay.
# [10] = test system: HCC1937 (BRCA-1 mutant) cells; test: MTS assay, HCC1937; assay type: cell-based
# Protocol: as §2
# BT20 = test: MTS assay, BT20; assay type: cell-based
# Protocol: as §2
# MRC5 = test: MTS assay, MRC5; assay type: cell-based; settings: MRC5 (normal)
# Protocol: as §2
# HMLEC = test: MTS assay, HMLEC; assay type: cell-based; settings: HMLEC (normal)
# Protocol: as §2
# MDA-MB-231 cells [11] = test: Clonogenic assay, MDA-MB-231; assay type: cell-based; settings: 1-2 μM; treated 24 hours, cultured two weeks
# HCC1937 cells = test: Clonogenic assay, HCC1937; assay type: cell-based; settings: 1-2 μM; treated 24 hours, cultured two weeks
# MDA-MB-231 cells [12] = test: Cell cycle analysis, MDA-MB-231; assay type: cell-based; settings: 4 and 8 μM; 24-hour treatment
# MCF-7 cells = test: Annexin V-FITC/Propidium Iodide apoptosis, MCF-7; assay type: cell-based; settings: 1-4 μM, 24 and 48 hours
# Description: Therefore, this cell line was not very sensitive to X001 in this assay.
# [13] = test system: caspase-3, PARP, BRCA-1, HSF1, mutant p53, Notch1, Jagged1 in MDA-MB-231 cells; test: Western blot, MDA-MB-231; assay type: cell-based; settings: 24-hour or 48-hour treatment
# Ames test strain TA100 = test: Ames test, TA100
# Ames test strain TA1535 = test: Ames test, TA1535
structure (smiles),measurement,setting,value
"CC(=O)OCC1=C(C)C[C@H]([C@@H](C)C2CC[C@H]3[C@@H]4C[C@H]5O[C@]56[C@@H](OC(C)=O)C=CC(=O)[C@]6(COC(C)=O)[C@H]4CC[C@]23C)OC1=O (stereo partly drawn) [Compound X003, 4,19,27-triacetyl X001]",apoptosis by PARP cleavage and caspase 3 activation,NCI-H727 cells,confirmed
same,heat shock-induced increase in luciferase activity,[1],substantially reduced
same,stress and client protein response (western blot),[2],"induced oxidative and proteotoxic stress, while depleting hsf1 and client proteins of Hsp90"
same,stress and client protein response (western blot),[3],"induced oxidative and proteotoxic stress, while depleting hsf1 and client proteins of Hsp90"
same,apoptosis on co-treatment with carfilzomib,[4],enhances
CC1=C(CO)C(=O)O[C@@H]([C@@H](C)C2CC[C@H]3[C@@H]4C[C@H]5O[C@]56[C@@H](O)C=CC(=O)[C@]6(CO)[C@H]4CC[C@]23C)C1 (stereo partly drawn) [Compound X001],IC50,[5],1910 nM
same,induction of apoptosis,DRO81-1 cells; 5 μM,apoptosis was induced
same,cells gated toward late apoptosis,DRO81-1 cells; 10 μM,65%
same,cleavage of PARP starting at (concentration),[6],500 nM
same,Mean % Parent Compound Remaining,[7],27%
same,Mean % Parent Compound Remaining,[8],31%
same,Mean % Parent Compound Remaining,[9],29%
same,Log ECF,MDA-MB-468,0.32
same,Log ECF,[10],0.71
same,Log ECF,BT20,0.91
same,Log ECF,MRC5,4.59
same,Log ECF,HMLEC,2.54
same,colony formation,MDA-MB-231 cells [11],strongly inhibited
same,colony formation,HCC1937 cells,strongly inhibited
same,cell cycle effect,MDA-MB-231 cells [12],G2/M arrest
same,induction of apoptosis,MCF-7 cells,did not induce apoptosis
same,"levels of BRCA-1, HSF1, mutant p53, Notch1 and Jagged1","[13]; 1, 2, 4, or 8 μM",decreased
same,caspase-3 activation (concentration),"[13]; tested 1, 2, 4, or 8 μM",4 to 8 µM
same,Positive Significance (− to +++),"Ames test strain TA100; 1.0E−04 M, TA100 +S9",−
same,Positive Significance (− to +++),"Ames test strain TA100; 1.0E−04 M, TA100 −S9",−
same,Positive Significance (− to +++),"Ames test strain TA100; 1.0E−05 M, TA100 +S9",−
same,Positive Significance (− to +++),"Ames test strain TA100; 1.0E−05 M, TA100 −S9",−
same,Positive Significance (− to +++),"Ames test strain TA100; 5.0E−05 M, TA100 +S9",−
same,Positive Significance (− to +++),"Ames test strain TA100; 5.0E−05 M, TA100 −S9",−
same,Positive Significance (− to +++),"Ames test strain TA100; 5.0E−06 M, TA100 +S9",−
same,Positive Significance (− to +++),"Ames test strain TA100; 5.0E−06 M, TA100 −S9",−
same,Positive Significance (− to +++),"Ames test strain TA1535; 1.0E−04 M, TA1535 +S9",−
same,Positive Significance (− to +++),"Ames test strain TA1535; 1.0E−04 M, TA1535 −S9",−
same,Positive Significance (− to +++),"Ames test strain TA1535; 1.0E−05 M, TA1535 +S9",−
same,Positive Significance (− to +++),"Ames test strain TA1535; 1.0E−05 M, TA1535 −S9",−
same,Positive Significance (− to +++),"Ames test strain TA1535; 5.0E−05 M, TA1535 +S9",−
same,Positive Significance (− to +++),"Ames test strain TA1535; 5.0E−05 M, TA1535 −S9",−
same,Positive Significance (− to +++),"Ames test strain TA1535; 5.0E−06 M, TA1535 +S9",−
same,Positive Significance (− to +++),"Ames test strain TA1535; 5.0E−06 M, TA1535 −S9",−
